The values that follow are results of earlier work, collected in patent US20080131525A1, “Therapeutic Nutrient Compositions Or Combinations And Methods Of Their Use” (priority 2004, published 2008).

Residues, ends and D or L forms follow the SMILES beside them.

For the series the following is noted: human, in vivo.

By half-life is commonly meant the time in which the quantity being followed falls by half. As for `C[C@H](N)C(=O)N[C@@H](CCC(N)=O)C(=O)O` [ala-gln, N(2)-L-alanyl-L-glutamine] (H-Ala-Gln-OH), the calculated distribution volume entry was “equivalent to that of the extracellular compartment”, the “dipeptide in plasma after the end of infusion” value is given as “no longer detectable in plasma”, the dipeptide in urine result is recorded as “no ala-gln was detected in urine” and the half-life is 2.4 to 3.8 min. The plasma clearance rate is 1.92 L/min. Also, the “dipeptide in plasma over the infusion period” value (24 mg/kg) is “only trace quantities”. Further, for the setting “iv”, the “hydrolysis after intravenous infusion” value was “rapidly hydrolysed” and the tolerability result is “well tolerated”.
